In article PMC4420865 (Journal of Cerebral Blood Flow & Metabolism, 2015):

Key:
Pgp at the human BBB [1] = settings: humans, tariquidar 6 mg/kg body weight; cited from earlier work
human Pgp = human Pgp (Homo sapiens, UniProt P08183); experiment: Inhibition of transport of [^3H]verapamil by human Pgp; assay type: biochemical
[2] = cited from earlier work
[3] = Tariquidar plasma concentrations during PET scan 2; assay type: in vivo, human
[4] = Adverse reactions during tariquidar infusion; assay type: in vivo, human
Pgp at the human BBB [5] = settings: cited from earlier work

human Pgp, sequence (P08183 whole entry): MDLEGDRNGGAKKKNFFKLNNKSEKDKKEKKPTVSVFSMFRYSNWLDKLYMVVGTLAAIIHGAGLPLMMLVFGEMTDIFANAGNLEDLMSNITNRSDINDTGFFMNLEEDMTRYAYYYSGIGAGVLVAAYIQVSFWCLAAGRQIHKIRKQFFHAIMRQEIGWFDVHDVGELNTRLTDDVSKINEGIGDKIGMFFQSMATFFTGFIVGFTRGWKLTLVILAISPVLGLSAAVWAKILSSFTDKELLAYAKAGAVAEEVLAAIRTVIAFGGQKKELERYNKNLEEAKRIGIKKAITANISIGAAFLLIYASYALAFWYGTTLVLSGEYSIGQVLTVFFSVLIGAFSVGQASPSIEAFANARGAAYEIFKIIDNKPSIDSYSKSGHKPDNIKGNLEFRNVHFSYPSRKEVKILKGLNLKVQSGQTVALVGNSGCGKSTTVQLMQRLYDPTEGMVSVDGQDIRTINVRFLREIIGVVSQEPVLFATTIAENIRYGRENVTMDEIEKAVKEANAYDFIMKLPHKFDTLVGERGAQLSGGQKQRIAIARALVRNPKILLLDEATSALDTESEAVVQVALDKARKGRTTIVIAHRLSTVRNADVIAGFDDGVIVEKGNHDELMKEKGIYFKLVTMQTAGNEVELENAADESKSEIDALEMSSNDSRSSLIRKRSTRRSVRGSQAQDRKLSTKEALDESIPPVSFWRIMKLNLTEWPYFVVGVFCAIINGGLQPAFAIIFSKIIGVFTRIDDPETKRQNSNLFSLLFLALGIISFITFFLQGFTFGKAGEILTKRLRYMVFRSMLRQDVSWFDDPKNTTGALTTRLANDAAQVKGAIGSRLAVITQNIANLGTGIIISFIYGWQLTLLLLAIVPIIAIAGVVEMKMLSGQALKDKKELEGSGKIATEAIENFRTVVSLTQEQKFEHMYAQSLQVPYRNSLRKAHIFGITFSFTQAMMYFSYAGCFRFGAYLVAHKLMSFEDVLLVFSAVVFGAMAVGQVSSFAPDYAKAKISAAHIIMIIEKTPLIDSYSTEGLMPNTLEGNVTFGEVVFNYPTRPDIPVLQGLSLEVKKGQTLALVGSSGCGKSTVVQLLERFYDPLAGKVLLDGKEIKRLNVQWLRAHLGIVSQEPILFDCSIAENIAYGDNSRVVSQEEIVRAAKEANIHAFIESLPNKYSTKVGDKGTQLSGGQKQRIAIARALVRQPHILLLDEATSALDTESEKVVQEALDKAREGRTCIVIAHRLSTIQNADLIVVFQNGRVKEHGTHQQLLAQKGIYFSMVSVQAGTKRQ

SMILES: COc1cc2c(cc1OC)CN(CCc1ccc(NC(=O)c3cc(OC)c(OC)cc3NC(=O)c3cnc4ccccc4c3)cc1)CC2 [tariquidar]
- Increase in brain distribution of [^11C]N-desmethyl-loperamide (Pgp at the human BBB [1]): 223%
- Ki (human Pgp): 8.5 nM
- Fraction of unbound tariquidar in human plasma [2]: 0.0063±0.0021
- Mean tariquidar plasma concentration during the PET scan ([3]; continuous i.v. infusion, mean dose 5.9±1.0 mg/kg, mean±s.d.): 2,873±517 nmol/L
- Mean tariquidar plasma concentration, times higher than in previous study ([3]; versus previous study ref 7): 2–3 times
- Subjects with mild adverse reactions most likely related to tariquidar ([4]; five healthy men, mean dose 5.9±1.0 mg/kg i.v. infusion): four out of five subjects
- Dizziness, N subjects ([4]; of five subjects): 1
- Metallic taste in the mouth, N subjects ([4]; of five subjects): 3
- Increase in brain distribution of (R)-[^11C]verapamil (Pgp at the human BBB [5]; humans, tariquidar 6 mg/kg body weight): 129%
- EC50 (Pgp at the human BBB [5]; read-out: Previously estimated EC50 of tariquidar in humans, enhancement of brain uptake of (R)-[^11C]verapamil): 868 nM
